Legend:
[1] = tested on: adult Musca domestica, strain WHO(N), sensitive; test: Test with flies; assay type: in vivo; conditions: 100 ppm; after 48 hours
Experimental: 10 mg of the active compound are dissolved in 0.5 ml dimethylsulphoxide, lower concentrations are prepared by dilution with water.
0.2 ml of this active compound preparation is pipetted onto a sponge (ca. Ø1.5 cm) that has been wetted with 0.8 ml sugar solution. The sponge and 10 test animals are transferred to a dish (4×4 cm, h 2 cm) and covered.
After 48 hours the activity of the active compound preparation is determined. Here 100% means that all flies were killed; 0% means that no flies were killed.

[2] = tested on: black bean aphid (Aphis fabae); test: Aphis fabae test (seed application), Example D1; assay type: in vivo; conditions: 90 g per unit (100,000 seeds), sugar beet seed
Experimental: To prepare a suitable active compound preparation 1 part by weight of the active compound is mixed with the given amount of solvent and emulsifier and the concentrate is diluted to the desired concentration with water.
Sugar beet seed (Beta vulgaris) is treated with the active compound preparation and sown into the earth. After ca. 4 weeks the beet plants are infected with the black bean aphid (Aphis fabae).
After the desired time the death rate in % is determined. Here 100% means that all aphids were killed; 0% means that no aphids were killed.

| SMILES | activity [1] [%] | death rate after 7 days [2] [%] |
| --- | --- | --- |
| CN(Cc1ccc(Cl)nc1)C1=CC(=O)OC1 [Compound 84] | 80 | – |
| O=C1C=C(N(Cc2ccc(Cl)nc2)C2CC2)CO1 [Compound 88] | – | 100 |
